From US7030145B2, “Pyridinyl derivatives for the treatment of depression” (Bristol-Myers Squibb Company, priority 2003, dated 2006) come the findings set out here.

Structures are written as SMILES. Bounds are passed on as bounds.

Series [1] addresses T1, cloned human CRF-R1 receptors (Homo sapiens, UniProt P34998).
T1 construct: the coding region was amplifies by PCR from start to stop codons; expressed in transfected cells; membranes
T1 sequence (P34998 24-415): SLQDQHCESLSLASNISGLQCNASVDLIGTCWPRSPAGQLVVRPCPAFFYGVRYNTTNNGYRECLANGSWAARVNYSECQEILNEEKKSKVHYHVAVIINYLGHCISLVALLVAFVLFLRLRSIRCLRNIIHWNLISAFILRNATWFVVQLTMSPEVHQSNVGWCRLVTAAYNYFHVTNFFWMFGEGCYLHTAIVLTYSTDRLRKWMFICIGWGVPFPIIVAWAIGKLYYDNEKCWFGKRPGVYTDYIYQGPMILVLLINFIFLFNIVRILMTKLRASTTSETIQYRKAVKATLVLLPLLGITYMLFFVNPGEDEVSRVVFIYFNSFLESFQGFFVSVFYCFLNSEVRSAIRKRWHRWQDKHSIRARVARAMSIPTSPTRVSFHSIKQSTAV
The series can be described thus: CRF-R1 receptor binding assay (inhibition of 125I-ovine-CRF binding to cell membranes). More on the design: key to activity (Ki class in the CRF assays): a: Ki≦100 nM; b: 100 nM<Ki≦500 nM; c: 500 nM<Ki≦5,000 nM; activity reported in percent inhibition at 10 μM. The following applies: membranes of 293EBNA cells transfected with hCRFR1, class d = reported as percent inhibition at 10 μM, figures not given; for Ki: read-out: activity (Ki class in the CRF assays). From the text:
The following is a description of the isolation of cell membranes containing cloned human CRF-R1 receptors for use in a standard binding assay as well as a description of the assay itself.
Messenger RNA was isolated from human hippocampus. […]. The mRNA was reverse transcribed using oligo (dt) 12–18 and the coding region was amplifies by PCR from start to stop codons. The resulting PCR fragment was cloned into the EcoRV site of pGEMV, from whence the insert was reclaimed using XhoI+XbaI and cloned into the XhoI+XbaI sites of vector pm3 as (which contains a CMV promoter, the SV′t′ splice and early poly A signals, an Eptein-Barr viral origin of replication, and a hygromycin selectable marker). The resulting expression vector, called phchCRFR was transfected in 293EBNA cells and cells retaining the episome were selected in the presence of […] hygromycin. Cells surviving 4 weeks of selection in hygromycin were pooled, adapted to growth in suspension and used to generate membranes for the binding assay described below. Individual aliquots containing approximately 1×10^8 of the suspended cells were then centrifuged to form a pellet and frozen. For the binding assay a frozen pellet described above containing 293EBNA cells transfected with hCRFR1 receptors is homogenized in 10 mL of ice cold tissue buffer (50 mM HEPES buffer pH 7.0, containing 10 MM MgCl2, 2 mM EGTA, 1 μg/mL apotinin, 1 μg/mL leupeptin and 1 μg/mL pepstatin). The homoginate is centrifuged at 40,000×g for 12 min and the resulting pellet rehomogenized in 10 mL of tissue buffer. After another centrifugation at 40,000×g for 12 min, the pellet is resuspended to a protein concentration of 360 μg/mL to be used in the assay.
Binding assays are performed in 96 well plates; each well having a 300 μL capacity. To each well is added 50 μL of test drug dilutions (final concentration of drugs range from 10^−10–10^−5 M), 100 μL of ^125I-ovine-CRF (^125I-o-CRF) (final concentration 150 pM) and 150 μL of the cell homoginate described above. Plates are then allowed to incubate at room temperature for 2 hours before filtering the incubate over GF/F filters (presoaked with 0.3% polyethyleneimine) using an appropriate cell harvester. Filters are rinsed 2 times with ice cold assay buffer before removing individual filters and assessing them for radioactivity on a gamma counter.
Curves of the inhibition of ^125I-o-CRF binding to cell membranes at various dilutions of test drug are analyzed by the iterative curve fitting program LIGAND [P. J. Munson and D. Rodbard, Anal. Biochem., 107:220 (1980), which provides Ki values for inhibition which are then used to assess biological activity. […]
Messenger RNA was isolated from human hippocampus. The mRNA was isolated from human hippocampus. The mRNA was reverse transcribed using oligo (dt) 12–18 and the coding region was amplifies by PCR from start to stop codons. The resulting PCR fragment was cloned into the EcoRV site of pGEMV, from whence the insert was reclaimed using XhoI+XbaI and cloned into the XhoI+XbaI sites of vector pm3 as (which contains a CMV promoter, the SV′t′ splice and early poly A signals, an Eptein-Barr viral origin of replication, and a hygromycin selectable marker). The resulting expression vector, called phchCRFR was transfected in 293EBNA cells and cells retaining the episome were selected in the presence of […] hygromycin. Cells surviving 4 weeks of selection in hygromycin were pooled, adapted to growth in suspension and used to generate membranes for the binding assay described below. […]
A frozen pellet described above containing 293EBNA cells transfected with hCRFR1 receptors or the rat frontal cortex tissue dissected from frozen rat brains was prepared as the source of membranes expressing CRF1 receptors used in binding assays. […]

As usually defined, the melting point is the temperature of the solid-liquid transition. For orientation: Ki means the equilibrium dissociation constant of an inhibitor or competing ligand from its target.

With `COc1ccc(Nc2nc(C)ccc2S(=O)(=O)c2ccc(OCc3ccccc3OC)cc2)c(C)c1` [Example 1, {3-[4-(2-Methoxybenzyloxy)-benzenesulfonyl]-6-methylpyridin-2-yl}-(4-methoxy-2-methylphenyl)-amine], the melting point was in the range of 70 to 72 °C. The “activity (Ki class in the CRF assays)” value in series [1] was “d”.
As for `COc1ccc(S(=O)(=O)c2ccc(C)nc2Nc2c(C)cc(C)cc2C)cc1` [Example 9, [3-(4-Methoxybenzenesulfonyl)-6-methylpyridin-2-yl]-(2,4,6-trimethylphenyl)-amine], the melting point is 165 to 167 °C. Besides, the Ki in series [1] is 100 to 500 nM.
With `Cc1cc(C)c(Nc2nc(C)ccc2S(=O)(=O)c2ccc(OCc3c(C)cccc3C)cc2)c(C)c1` [Example 36, {3-[4-(2,6-Dimethylbenzyloxy)-benzenesulfonyl]-6-methyl-pyridin-2-yl}-(2,4,6-trimethylphenyl)-amine], the melting point lay in the range of 136 to 138 °C. In addition, in series [1], the Ki is at most 100 nM.
In turn, `COc1cccc(COc2ccc(S(=O)(=O)c3ccc(C)nc3Nc3c(C)cc(C)cc3C)cc2)c1OC` [Example 32, {3-[4-(2,3-Dimethoxybenzyloxy)-benzenesulfonyl]-6-methylpyridin-2-yl}-(2,4,6-trimethylphenyl)-amine] returned a melting point of 124 to 126 °C. In addition, the Ki in series [1] is at most 100 nM.
On to `COc1ccccc1COc1ccc(S(=O)(=O)c2ccc(C)nc2Nc2cc(OC)c(OC)cc2Cl)cc1` [Example 6, (2-Chloro-4,5-dimethoxyphenyl)-{3-[4-(2-methoxybenzyloxy)-benzenesulfonyl]-6-methylpyridin-2-yl}-amine], for which the melting point was in the range of 149 to 151 °C. Also, the “activity (Ki class in the CRF assays)” value in series [1] is recorded as “d”.
`Cc1cc(C)c(Nc2nc(C)ccc2S(=O)(=O)c2ccc(F)c(Cl)c2)c(C)c1` [Example 37, [3-(3-Chloro-4-fluorobenzenesulfonyl)-6-methylpyridin-2-yl]-(2,4,6-trimethylphenyl)-amine] registered a melting point of 139 to 141 °C. For the same compound, the Ki in series [1] is 100 to 500 nM.
For the compound `CCOc1ccc(S(=O)(=O)c2ccc(C)nc2Nc2c(C)cc(C)cc2C)cc1` [Example 12, [3-(4-Ethoxybenzenesulfonyl)-6-methylpyridin-2-yl]-(2,4,6-trimethylphenyl)-amine], the melting point fell in the range of 157 to 159 °C. Besides, the “activity (Ki class in the CRF assays)” value in series [1] was “d”.
As for `COC(=O)c1cccc(COc2ccc(S(=O)(=O)c3ccc(C)nc3Nc3c(C)cc(C)cc3C)cc2)c1` [Example 25, 3-{4-[6-Methyl-2-(2,4,6-trimethylphenylamino)-pyridine-3-sulfonyl]-phenoxymethyl}-benzoic acid methyl ester], the melting point lay within 148 to 150 °C. Also, the Ki in series [1] is at most 100 nM.
For `Cc1cc(C)c(Nc2nc(C)ccc2S(=O)(=O)c2ccc(OCCCC#N)cc2)c(C)c1` [Example 14, 4-{4-[6-Methyl-2-(2,4,6-trimethylphenylamino)-pyridine-3-sulfonyl]-phenoxy}-butyronitrile], in that order: 160 to 162 °C and 500 to 5000 nM.
For `Cc1cc(C)c(Nc2nc(C)ccc2S(=O)(=O)c2ccc(OCCCO)cc2)c(C)c1` [Example 16, 3-{4-[6-Methyl-2-(2,4,6-trimethylphenylamino)-pyridine-3-sulfonyl]-phenoxy}-propan-1-ol], in that order: 152 to 153 °C and 500 to 5000 nM.
In the same order, the values of `Cc1cc(C)c(Nc2nc(C)ccc2S(=O)(=O)c2ccc(OCc3ccc(F)cc3)cc2)c(C)c1` [Example 22, {3-[4-(4-Fluorobenzyloxy)-benzenesulfonyl]-6-methylpyridin-2-yl}-(2,4,6-trimethylphenyl)-amine] are 178 to 180 °C and 100 to 500 nM.
Compound `Cc1cc(C)c(Nc2nc(C)ccc2S(=O)(=O)c2ccc(OCc3cc(Cl)nc(Cl)c3)cc2)c(C)c1` [Example 20, {3-[4-(2,6-Dichloropyridin-4-ylmethoxy)-benzenesulfonyl]-6-methylpyridin-2-yl}-(2,4,6-trimethylphenyl)-amine] displayed a melting point of 192 to 201 °C. Also, in series [1], the inhibitory constant (Ki) was in the range of 100 to 500 nM.
`COc1ccccc1COc1ccc(S(=O)(=O)c2ccc(C)nc2Nc2ccc(Cl)cc2C#N)cc1` [Example 8, 5-Chloro-2-{3-[4-(2-methoxybenzyloxy)-benzenesulfonyl]-6-methylpyridin-2-ylamino}-benzonitrile] gave a melting point of 178 to 180 °C. Moreover, in series [1], the “activity (Ki class in the CRF assays)” value is on record as “d”.
The compound `Cc1cc(C)c(Nc2nc(C)ccc2S(=O)(=O)c2ccc(OCc3ccccc3[N+](=O)[O-])cc2)c(C)c1` [Example 29, {6-Methyl-3-[4-(2-nitrobenzyloxy)-benzenesulfonyl]-pyridin-2-yl}-(2,4,6-trimethylphenyl)-amine] returned a melting point of 153 to 155 °C. In series [1], the Ki was at most 100 nM.
`CCc1ccc(S(=O)(=O)c2ccc(C)nc2Nc2ccc(OC)cc2Cl)cc1` [Example 69, (2-Chloro-4-methoxyphenyl)-[3-(4-ethylbenzenesulfonyl)-6-methylpyridin-2-yl]-amine] showed a melting point of 110 to 112 °C. Also, in series [1], the Ki lay in the range of 100 to 500 nM.
In the same order, the values of `COc1ccccc1COc1ccc(S(=O)(=O)c2ccc(C)nc2Nc2c(C)cc(C)cc2C)cc1` [Example 27, {3-[4-(2-Methoxybenzyloxy)-benzenesulfonyl]-6-methylpyridin-2-yl}-(2,4,6-trimethylphenyl)-amine] are 148 to 150 °C and at most 100 nM.
In the same order, the values of `Cc1cc(C)c(Nc2nc(C)ccc2S(=O)(=O)c2ccc(OCc3csc(C)n3)cc2)c(C)c1` [Example 21, {6-Methyl-3-[4-(2-methylthiazol-4-ylmethoxy)-benzenesulfonyl]-pyridin-2-yl}-(2,4,6-trimethylphenyl)-amine] are 200 to 201 °C and 100 to 500 nM.
In turn, `COc1ccccc1COc1ccc(S(=O)(=O)c2ccc(C)nc2Nc2cc(F)c(N(C)C)cc2Cl)cc1` [Example 3, 2-Chloro-5-fluoro-N^1-{3-[4-(2-methoxybenzyloxy)-benzenesulfonyl]-6-methylpyridin-2-yl}-N^4,N^4-dimethylbenzene-1,4-diamine] returned a melting point of 68 to 70 °C. Besides, the “activity (Ki class in the CRF assays)” value in series [1] is recorded as “d”.
Turning to `Cc1cc(C)c(Nc2nc(C)ccc2S(=O)(=O)c2cccc(OCc3ccccc3)c2)c(C)c1` [Example 60, [3-(3-Benzyloxybenzenesulfonyl)-6-methylpyridin-2-yl]-(2,4,6-trimethylphenyl)-amine], in series [1], the Ki was 100 to 500 nM.
